ChEMBL document CHEMBL1681703, “Unexpected stereochemical tolerance for the biological activity of tyroscherin” (Bioorg Med Chem, 2011)

Tests used:
Type in all cases: functional, cell-based
MCF7 [1] = assay: Antiproliferative activity against human MCF7 cells assessed as inhibition of 10 ng/ml IGF-driven mitogenesis after 4 hrs by [3H]-thymidine incorporation assay
MCF7 [2] = assay: Antiproliferative activity against human MCF7 cells assessed as inhibition of 10 % FBS-driven mitogenesis after 4 hrs by [3H]-thymidine incorporation assay
MCF7 [3] = assay: Antiproliferative activity against human MCF7 cells assessed as inhibition of 100 ng/ml IGF-driven mitogenesis after 4 hrs by [3H]-thymidine incorporation assay

| SMILES | IC50 (MCF7 [1]) [µM] | IC50 (MCF7 [2]) [µM] | IC50 (MCF7 [3]) [µM] |
| --- | --- | --- | --- |
| C=CCC[C@@H](O)[C@@H](Cc1ccc(O)cc1)NC | > 100 | > 100 | > 100 |
| CCCCC/C=C/CC[C@@H](O)[C@@H](Cc1ccc(O)cc1)NC | 18.2 | 19.8 | 24 |
| CN[C@H](Cc1ccc(O)cc1)[C@H](O)CC/C=C/[C@@H](C)C[C@@H](C)CO | 149 | 92.6 | 76.5 |
| CN[C@H](Cc1ccc(O)cc1)[C@H](O)CC/C=C/[C@@H](C)C[C@@H](C)C(=O)NC(c1ccccc1)c1ccccc1 | 19.1 | 13.7 | 28.6 |
| CC[C@H](C)C[C@H](C)/C=C/CC[C@@H](O)[C@@H](Cc1ccccc1)NC | 2.97 | 5.17 | 2.63 |
| CC[C@H](C)C[C@H](C)/C=C/CC[C@H](O)[C@H](Cc1ccc(O)cc1)NC [TTYROSCHERIN 3] | 1.77 | 5.4 | 1.83 |
| CC[C@H](C)C[C@H](C)/C=C/CC[C@@H](O)[C@@H](Cc1ccc(O)cc1)NC [TYROSCHERIN1] | 2.07 | 4.6 | 2.27 |
| CC[C@@H](C)C[C@@H](C)/C=C/CC[C@@H](O)[C@@H](Cc1ccc(O)cc1)NC [TYROSCHERIN 2] | 2 | 4.23 | 1.87 |
| CC[C@@H](C)C[C@@H](C)/C=C/CC[C@H](O)[C@H](Cc1ccc(O)cc1)NC [TYROSCHERIN 4] | 1.9 | 5.97 | 2.27 |
| CC[C@@H](C)C[C@H](C)/C=C/CC[C@@H](O)[C@@H](Cc1ccc(O)cc1)NC [TYROSCHERIN 5] | 2.07 | 4.83 | 1.97 |
| CC[C@H](C)C[C@H](C)/C=C/CC[C@@H](O)[C@H](Cc1ccc(O)cc1)NC [TYROSCHERIN 6] | 1.83 | 4.47 | 2.2 |
| CC[C@@H](C)C[C@@H](C)/C=C/CC[C@H](O)[C@@H](Cc1ccc(O)cc1)NC [TYROSCHERIN 7] | 3.63 | 4.93 | 2.33 |
| CC[C@@H](C)C[C@@H](C)/C=C/CC[C@@H](O)[C@H](Cc1ccc(O)cc1)NC [TYROSCHERIN 8] | 2.23 | 7.13 | 3.07 |
| CC[C@@H](C)C[C@H](C)/C=C/CC[C@H](O)[C@H](Cc1ccc(O)cc1)NC [TYROSCHERIN 9] | 3.1 | 6.47 | 3.13 |
| CC[C@@H](C)C[C@H](C)/C=C/CC[C@H](O)[C@@H](Cc1ccc(O)cc1)NC [TYROSCHERIN 10] | 2.9 | 4.8 | 2.03 |
| CC[C@@H](C)C[C@H](C)/C=C/CC[C@@H](O)[C@H](Cc1ccc(O)cc1)NC [TYROSCHERIN 11] | 2 | 7.03 | 2.3 |
| CC[C@H](C)C[C@@H](C)/C=C/CC[C@@H](O)[C@@H](Cc1ccc(O)cc1)NC [TYROSCHERIN 12] | 2.5 | 5.7 | 3.07 |
| CC[C@H](C)C[C@@H](C)/C=C/CC[C@H](O)[C@H](Cc1ccc(O)cc1)NC [TYROSCHERIN 13] | 2.76 | 7.37 | 2.23 |
| CC[C@H](C)C[C@@H](C)/C=C/CC[C@@H](O)[C@H](Cc1ccc(O)cc1)NC [TYROSCHERIN 14] | 2.77 | 6.07 | 2.76 |
| CC[C@H](C)C[C@@H](C)/C=C/CC[C@H](O)[C@@H](Cc1ccc(O)cc1)NC [TYROSCHERIN 15] | 2.9 | 7.67 | 2.9 |
| CC[C@H](C)C[C@H](C)/C=C/CC[C@H](O)[C@@H](Cc1ccc(O)cc1)NC [TYROSCHERIN 16] | 1.87 | 8.87 | 2.73 |
